What all share (assay): DTP human tumour cell line panel, 48 h
For experiment [1], the system named is SF-539.
In experiment [2] the test system is SR.
For experiment [3], the system named is TK-10.
Experiment [4] deals with SK-MEL-5.
In experiment [5] the test system is HOP-92.
Experiment [6] concerns KM-20L2.
The subject of experiment [7] is UACC-62.
The subject of experiment [8] is HCC 2998.
Experiment [9] relates to SNB-19.
Experiment [10] deals with NCI-H23.
For experiment [11], the system named is A498.
The subject of experiment [12] is SNB-75.
Experiment [13] relates to NCI-H522.
Experiment [14] has as its system CCRF-CEM.
Experiment [15] relates to A549.
In experiment [16] the test system is ACHN.
Experiment [17] has as its system OVCAR-8.
Experiment [18] deals with NCI/ADR-RES.
Experiment [19] relates to MDA-N.
Experiment [20] concerns Hs-578T.

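Briefly, cells in 96-well plates were exposed to five compound concentrations for 48 h, and endpoints were estimated by linear interpolation. GI50 = concentration required for 50% inhibition of growth.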 Active and inactive are the calls of the source. No stated cut-off is given here; in the data, active = GI50 up to about 1.1 µM and inactive = higher.

Turning to `O=[N+]([O-])c1cccnc1S(=O)(=O)c1ccccc1`, the GI50 in [1] was 11.3 µM (inactive); in [2], 3.99 µM (inactive); in [3], 10 µM (inactive); in experiment [4], 18.1 µM (inactive); in [5], 1.97 µM (inactive); in experiment [6], 12.8 µM (inactive). Further, the GI50 was 11.6 µM (inactive) in experiment [7]; 13.6 µM (inactive) in experiment [8]; 19.8 µM (inactive) in experiment [9]; 15.8 µM (inactive) in experiment [10]; 22.1 µM (inactive) in [11]; 19.9 µM (inactive) in experiment [12]. Also, the GI50 was 1.46 µM (inactive) in experiment [13]; 4.21 µM (inactive) in experiment [14]; 21.8 µM (inactive) in [15]; 4.83 µM (inactive) in [16]; 13.8 µM (inactive) in experiment [17].

Consider `CC(C)/C=C1\CCC(CN(C)C)C1=O` (configuration not stated), for which the GI50 in experiment [1] was 7.29 µM (inactive); in experiment [18], 3 µM (inactive); in [2] it was 0.951 µM (active); in experiment [3] it was 2.09 µM (inactive); in experiment [19], 2.92 µM (inactive); in experiment [4] it was 4.97 µM (inactive). Also, the GI50 in experiment [20] was 1.86 µM (inactive); in [5] it was 1.31 µM (inactive); in experiment [6], 9.75 µM (inactive); in [7] it was 16.8 µM (inactive); in experiment [8] it was 7.03 µM (inactive); in experiment [9], 9.66 µM (inactive). For the same compound, the GI50 in experiment [10] was 5.56 µM (inactive); in [11] it was 6.87 µM (inactive); in experiment [12] it was 3.48 µM (inactive); in experiment [13], 0.082 µM (active); in [14] it was 1.63 µM (inactive); in experiment [15] it was 8.57 µM (inactive). Further, the values for the GI50 in experiment [16] and in experiment [17] were 5.82 µM (inactive) and 2 µM (inactive), respectively.

With `C[n+]1c2ccccc2cc2c(CNC(CCCNC(=N)N)C(=O)O)cccc21` (configuration not stated), the GI50 in experiment [1] was 1.23 µM (inactive); in [2] it was 0.184 µM (active); in experiment [3] it was 0.67 µM (active); in [4], 2.21 µM (inactive); in [5] it was 1.3 µM (inactive); in experiment [6] it was 0.641 µM (active). In addition, the GI50 was 0.643 µM (active) in experiment [7]; 2.24 µM (inactive) in [8]; 2.37 µM (inactive) in experiment [9]; 3.14 µM (inactive) in experiment [10]; 3.51 µM (inactive) in [11]; 5.62 µM (inactive) in experiment [12]. Further, the GI50 in experiment [13] is 1.4 µM (inactive); in experiment [14], 0.179 µM (active); in [15] it was 3.05 µM (inactive); in experiment [16] it was 0.594 µM (active); in experiment [17], 1.8 µM (inactive).

Take `CSc1nc(O)c2cn(Cc3ccccc3)nc2n1`: the GI50 was > 100 µM (inactive) in experiment [1]; > 100 µM (inactive) in [2]; > 61.7 µM (inactive) in experiment [3]; > 100 µM (inactive) in experiment [4]; 71.6 µM (inactive) in [5]; > 67.5 µM (inactive) in experiment [6]. In addition, the GI50 in experiment [7] is > 100 µM (inactive); in experiment [8], > 100 µM (inactive); in [9], > 100 µM (inactive); in experiment [10], > 100 µM (inactive); in experiment [11], > 100 µM (inactive); in experiment [12], > 86.1 µM (inactive). The GI50 in experiment [13] is > 100 µM (inactive); in experiment [14], 44 µM (inactive); in experiment [15], > 100 µM (inactive); in experiment [16], > 76.4 µM (inactive); in experiment [17] it was > 100 µM (inactive).

For `OC(CCl)CN1CC[N+]2(CC1)CC[N+]1(CCN(CC(O)CCl)CC1)CC2` (configuration not stated) [PROSPIDIUM CHLORIDE], the GI50 in experiment [1], in experiment [2], in experiment [3], in experiment [4], in [5] and in [6] was > 50 µM (inactive) each time. The GI50 in experiment [8], in experiment [9], in experiment [10], in [11], in experiment [12] and in experiment [13] was > 50 µM (inactive) in each case. The GI50 in [14], in [15], in experiment [16] and in experiment [17] was > 50 µM (inactive) each time.

Values taken from ChEMBL document CHEMBL1201862, “PubChem BioAssay data set” (2004).
